Values after ≈ are worked out from the molar mass of the structure shown. Non-standard residues stand in square brackets, D forms with d. Residues, ends and D or L forms follow the SMILES beside them. Hyp = O=C(O)[C@@H]1C[C@@H](O)CN1; dOrn = NCCC[C@@H](N)C(=O)O; Orn = NCCC[C@H](N)C(=O)O

In assay [1] the test system is E. coli BL21 A1. Format: cell-based, Escherichia coli. Conditions: BL21, 20 h. The method in brief: (§1)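 Broth microdilution in 1% TSB with twofold peptide series, final 128 μg/mL to 62.5 ng/mL, against 5×10^6 bacteria/mL stock suspension added 1:1. Incubated 20 h at 37 °C, growth read by absorbance at 595 nm; MIC is the lowest concentration with no growth, determined in triplicate.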

Assay [2] relates to M. luteus 10240. The assay can be described thus: Growth inhibition assay (microdilution MIC). The class given is cell-based, Micrococcus luteus. The note with it: 10240, 20 h. The method in brief: as §1

As to `CC[C@H](C)[C@H](NC(=O)[C@H](CCCNC(=N)N)NC(=O)[C@H](CCCNC(=N)N)NC(=O)[C@@H]1CCCN1C(=O)[C@@H]1CCCN1C(=O)[C@H](CCCNC(=N)N)NC(=O)[C@@H]1CCCN1C(=O)[C@H](CCCNC(=N)N)NC(=O)[C@@H]1CCCN1C(=O)[C@H](CC(C)C)NC(=O)[C@H](Cc1ccc(O)cc1)NC(=O)[C@@H]1CCCN1C(=O)[C@@H]1CCCN1C(=O)[C@H](CCCCN)NC(=O)[C@H](CC(=O)O)NC(=O)[C@H](CCCN)NC(=O)[C@@H](CS)NC(=O)[C@H](C)N)C(=O)N[C@@H](Cc1ccc(O)cc1)C(=O)N[C@@H](CC(N)=O)C(=O)N[C@@H](CCCNC(=N)N)C(N)=O` [compound 83] (H-A[dC][Orn]DKPPYLPRPRPPRRIYNR-NH2), the “MIC E. coli BL21 A1” value in assay [1] stood at 16 µg/mL (≈ 6.2 µM). In addition, the “MIC M. luteus 10240” value in assay [2] came to 16 µg/mL (≈ 6.2 µM).
As to `CC[C@H](C)[C@H](NC(=O)[C@H](Cc1ccc(O)cc1)NC(=O)[C@H](CC(N)=O)NC(=O)[C@@H](N)CCCN)C(=O)N[C@@H](CCCN)C(=O)N[C@@H](CCCNC(=N)N)C(=O)N1CCC[C@H]1C(=O)N1CCC[C@H]1C(=O)N[C@@H](CCCNC(=N)N)C(=O)N1CCC[C@H]1C(=O)N[C@@H](CCCNC(=N)N)C(=O)N1CCC[C@H]1C(=O)N[C@@H](CC(C)C)C(=O)N[C@@H](Cc1ccc(O)cc1)C(=O)N1CCC[C@H]1C(=O)N1CCC[C@H]1C(=O)N[C@@H](CCCCN)C(=O)N[C@@H](CC(=O)O)C(=O)N[C@H](C(N)=O)C(C)C` [compound 113] (H-[Orn]NYI[Orn]RPPRPRPLYPPKDV-NH2), in assay [1], the “MIC E. coli BL21 A1” value is over 256 µg/mL. Besides, in assay [2], the “MIC M. luteus 10240” value came out at 64 µg/mL (≈ 27.8 µM).
For `CC[C@H](C)[C@H](NC(=O)[C@H](Cc1ccc(O)cc1)NC(=O)[C@H](CC(N)=O)NC(=O)[C@@H](N)CCCN)C(=O)N1C[C@H](O)C[C@H]1C(=O)N[C@@H](CCCNC(=N)N)C(=O)N1CCC[C@H]1C(=O)N1CCC[C@H]1C(=O)N[C@@H](CCCNC(=N)N)C(=O)N1CCC[C@H]1C(=O)N[C@@H](CCCNC(=N)N)C(=O)N1CCC[C@H]1C(=O)N[C@@H](CC(C)C)C(=O)N[C@@H](Cc1ccc(O)cc1)C(=O)N1CCC[C@H]1C(=O)N1CCC[C@H]1C(=O)N[C@@H](CCCCN)C(=O)N[C@@H](CC(=O)O)C(=O)N[C@H](C(N)=O)C(C)C` [compound 114] (H-[Orn]NYI[Hyp]RPPRPRPLYPPKDV-NH2) the same measures were over 256 µg/mL and 128 µg/mL (≈ 55.5 µM).
Regarding `CC[C@@H](C)[C@@H](NC(=O)[C@@H](CCCNC(=N)N)NC(=O)[C@@H](CCCNC(=N)N)NC(=O)[C@H]1CCCN1C(=O)[C@H]1CCCN1C(=O)[C@@H](CCCNC(=N)N)NC(=O)[C@H]1CCCN1C(=O)[C@@H](CCCNC(=N)N)NC(=O)[C@H]1CCCN1C(=O)[C@@H](CC(C)C)NC(=O)[C@@H](Cc1ccc(O)cc1)NC(=O)[C@H]1CCCN1C(=O)[C@H]1CCCN1C(=O)[C@@H](CCCCN)NC(=O)[C@@H](CC(=O)O)NC(=O)[C@H](N)C(C)C)C(=O)N[C@H](Cc1ccc(O)cc1)C(=O)N[C@H](CC(N)=O)C(=O)N[C@H](CCCNC(=N)N)C(N)=O` [compound 115] (H-[dV][dD][dK][dP][dP][dY][dL][dP][dR][dP][dR][dP][dP][dR][dR][dI][dY][dN][dR]-NH2), the “MIC E. coli BL21 A1” value in assay [1] came out at 64 µg/mL (≈ 26.8 µM). The “MIC M. luteus 10240” value in assay [2] is 16 µg/mL (≈ 6.69 µM).
As for `CC[C@@H](C)[C@@H](NC(=O)[C@@H](CCCN)NC(=O)[C@@H](CCCNC(=N)N)NC(=O)[C@H]1CCCN1C(=O)[C@H]1CCCN1C(=O)[C@@H](CCCNC(=N)N)NC(=O)[C@H]1CCCN1C(=O)[C@@H](CCCNC(=N)N)NC(=O)[C@H]1CCCN1C(=O)[C@@H](CC(C)C)NC(=O)[C@@H](Cc1ccc(O)cc1)NC(=O)[C@H]1CCCN1C(=O)[C@H]1CCCN1C(=O)[C@@H](CCCCN)NC(=O)[C@@H](CC(=O)O)NC(=O)[C@H](N)C(C)C)C(=O)N[C@H](Cc1ccc(O)cc1)C(=O)N[C@H](CC(N)=O)C(=O)N[C@H](CCCN)C(N)=O` [compound 116] (H-[dV][dD][dK][dP][dP][dY][dL][dP][dR][dP][dR][dP][dP][dR][dOrn][dI][dY][dN][dOrn]-NH2), the “MIC E. coli BL21 A1” value in assay [1] is 64 µg/mL (≈ 27.8 µM). Further, the “MIC M. luteus 10240” value in assay [2] worked out at 32 µg/mL (≈ 13.9 µM).
In the case of `CC[C@@H](C)[C@@H](NC(=O)[C@@H](Cc1ccc(O)cc1)NC(=O)[C@@H](CC(N)=O)NC(=O)[C@H](N)CCCN)C(=O)N[C@H](CCCN)C(=O)N[C@H](CCCNC(=N)N)C(=O)N1CCC[C@@H]1C(=O)N1CCC[C@@H]1C(=O)N[C@H](CCCNC(=N)N)C(=O)N1CCC[C@@H]1C(=O)N[C@H](CCCNC(=N)N)C(=O)N1CCC[C@@H]1C(=O)N[C@H](CC(C)C)C(=O)N[C@H](Cc1ccc(O)cc1)C(=O)N1CCC[C@@H]1C(=O)N1CCC[C@@H]1C(=O)N[C@H](CCCCN)C(=O)N[C@H](CC(=O)O)C(=O)N[C@@H](C(N)=O)C(C)C` [compound 118] (H-[dOrn][dN][dY][dI][dOrn][dR][dP][dP][dR][dP][dR][dP][dL][dY][dP][dP][dK][dD][dV]-NH2), in assay [1], the “MIC E. coli BL21 A1” value was determined as 256 µg/mL (≈ 111 µM). For the same compound, the “MIC M. luteus 10240” value in assay [2] turned out to be 32 µg/mL (≈ 13.9 µM).
Consider H-ADKPPYLPRPRPPRRIYNR-NH2 [compound 29], for which the “MIC E. coli BL21 A1” value in assay [1] came to 8 µg/mL. In assay [2], the “MIC M. luteus 10240” value came out at 4 µg/mL.
For the compound H-DKPPYLPRPRPPRRIYNR-NH2 [compound 86], the “MIC E. coli BL21 A1” value in assay [1] stood at 32 µg/mL. The “MIC M. luteus 10240” value in assay [2] is 8 µg/mL.
With H-VAKPPYLPRPRPPRRIYNR-NH2 [compound 30], in assay [1], the “MIC E. coli BL21 A1” value is 16 µg/mL. In assay [2], the “MIC M. luteus 10240” value is 4 µg/mL.
For H-VDAPPYLPRPRPPRRIYNR-NH2 [compound 31] the same measures were 64 µg/mL and 32 µg/mL.
For the compound H-VDKAPYLPRPRPPRRIYNR-NH2 [compound 32], the “MIC E. coli BL21 A1” value in assay [1] came to 8 µg/mL. Besides, the “MIC M. luteus 10240” value in assay [2] worked out at 8 µg/mL.
For H-VDKPAYLPRPRPPRRIYNR-NH2 [compound 33], the “MIC E. coli BL21 A1” value in assay [1] came to 8 µg/mL. Also, in assay [2], the “MIC M. luteus 10240” value was determined as 8 µg/mL.
Turning to H-VDKPPALPRPRPPRRIYNR-NH2 [compound 34], the “MIC E. coli BL21 A1” value in assay [1] was determined as 128 µg/mL. For the same compound, the “MIC M. luteus 10240” value in assay [2] worked out at 16 µg/mL.
As to H-VDKPPYAPRPRPPRRIYNR-NH2 [compound 35], the “MIC E. coli BL21 A1” value in assay [1] came to 128 µg/mL. Further, the “MIC M. luteus 10240” value in assay [2] was determined as 16 µg/mL.
In the case of H-VDKPPYIPRPRPPRRIYNR-NH2 [compound 77], the “MIC E. coli BL21 A1” value in assay [1] was found to be 32 µg/mL. In addition, the “MIC M. luteus 10240” value in assay [2] is 8 µg/mL.
For H-VDKPPYLARPRPPRRIYNR-NH2 [compound 36] the same measures were 32 µg/mL and 8 µg/mL.
For H-VDKPPYLPAPRPPRRIYNR-NH2 [compound 37] the same measures were 32 µg/mL and 32 µg/mL.
As to H-VDKPPYLPRARPPRRIYNR-NH2 [compound 38], the “MIC E. coli BL21 A1” value in assay [1] was 32 µg/mL. Besides, the “MIC M. luteus 10240” value in assay [2] was found to be 8 µg/mL.
Turning to H-VDKPPYLPRPAPPRRIYNR-NH2 [compound 39], the “MIC E. coli BL21 A1” value in assay [1] was found to be 64 µg/mL. In assay [2], the “MIC M. luteus 10240” value came to 16 µg/mL.
In the case of H-VDKPPYLPRPFPPRRIYNR-OH [compound 13], the “MIC E. coli BL21 A1” value in assay [1] turned out to be 64 µg/mL. Moreover, the “MIC M. luteus 10240” value in assay [2] was 32 µg/mL.
Turning to H-VDKPPYLPRPHPPRRIYNNR-OH [compound 8], the “MIC E. coli BL21 A1” value in assay [1] amounted to 64 µg/mL. Further, the “MIC M. luteus 10240” value in assay [2] is 32 µg/mL.
Turning to H-VDKPPYLPRPHPPRRIYNRN-OH [compound 9], in assay [1], the “MIC E. coli BL21 A1” value turned out to be 64 µg/mL. In addition, in assay [2], the “MIC M. luteus 10240” value amounted to 16 µg/mL.
H-VDKPPYLPRPKPPRRIYNR-NH2 [compound 7]: the “MIC E. coli BL21 A1” value in assay [1] amounted to 8 µg/mL. For the same compound, the “MIC M. luteus 10240” value in assay [2] came to 16 µg/mL.
On the same counts, the results for H-VDKPPYLPRPKPPRRIYNRN-OH [compound 6] are 32 µg/mL and 16 µg/mL.
For H-VDKPPYLPRPNPPRRIYNR-OH [compound 11] the same measures were 64 µg/mL and 64 µg/mL.
H-VDKPPYLPRPPPPRRIYNNR-OH [compound 2]: in assay [1], the “MIC E. coli BL21 A1” value amounted to 128 µg/mL. Further, in assay [2], the “MIC M. luteus 10240” value turned out to be 64 µg/mL.
For H-VDKPPYLPRPQPPRRIYNR-OH [compound 12] the same measures were 64 µg/mL and 64 µg/mL.
On the same counts, the results for H-VDKPPYLPRPRAPRRIYNR-NH2 [compound 40] are 16 µg/mL and 8 µg/mL.
For H-VDKPPYLPRPRPARRIYNR-NH2 [compound 41] the same measures were 16 µg/mL and 8 µg/mL.
For the compound H-VDKPPYLPRPRPPARIYNR-NH2 [compound 42], the “MIC E. coli BL21 A1” value in assay [1] amounted to 16 µg/mL. Further, in assay [2], the “MIC M. luteus 10240” value is 32 µg/mL.
In the case of H-VDKPPYLPRPRPPRAIYNR-NH2 [compound 43], the “MIC E. coli BL21 A1” value in assay [1] was 32 µg/mL. In assay [2], the “MIC M. luteus 10240” value stood at 16 µg/mL.
Turning to H-VDKPPYLPRPRPPRHIYNH-NH2 [compound 64], the “MIC E. coli BL21 A1” value in assay [1] was 8 µg/mL. Also, the “MIC M. luteus 10240” value in assay [2] turned out to be 32 µg/mL.
On the same counts, the results for H-VDKPPYLPRPRPPRPIRV-OH [compound 48] are 128 µg/mL and 8 µg/mL.
On the same counts, the results for H-VDKPPYLPRPRPPRRAYNR-NH2 [compound 44] are 16 µg/mL and 16 µg/mL.
For the compound H-VDKPPYLPRPRPPRRIANR-NH2 [compound 45], the “MIC E. coli BL21 A1” value in assay [1] worked out at 8 µg/mL. For the same compound, the “MIC M. luteus 10240” value in assay [2] is 16 µg/mL.
For H-VDKPPYLPRPRPPRRIYAR-NH2 [compound 46] the same measures were 8 µg/mL and 8 µg/mL.
In the case of H-VDKPPYLPRPRPPRRIYN-NH2 [compound 27], in assay [1], the “MIC E. coli BL21 A1” value was 32 µg/mL. Also, in assay [2], the “MIC M. luteus 10240” value was found to be 64 µg/mL.
With H-VDKPPYLPRPRPPRRIYNA-NH2 [compound 47], the “MIC E. coli BL21 A1” value in assay [1] came out at 32 µg/mL. Moreover, the “MIC M. luteus 10240” value in assay [2] was determined as 16 µg/mL.

The values are drawn from patent publication US8686113B2 (priority 2009, dated 2014).
